{"source": "a melting point compilation (Tetko et al.; mined from patent text by program, amines drawn as free bases though some values may be those of a salt)"}
{"units": {"melting point": "°C"}}
{"molecule": "NS(=O)(=O)c1cc2[nH]c(=O)c(=O)[nH]c2cc1[N+](=O)[O-]", "melting point": "> 330"}
{"molecule": "Brc1ccc(C2NCCS2)cc1", "note": "(configuration not stated)", "melting point": "105 to 107"}
{"molecule": "CN(C)CC(=O)Nc1ccccc1N", "melting point": "119 to 121"}
{"molecule": "N#CCC(C#N)=NNc1c(Cl)cc(C(F)(F)F)cc1Cl", "melting point": "80 to 82"}
{"molecule": "CCc1cc(Br)cc2nc(C(=O)OC)c(C(=O)OC)c(O)c12", "melting point": "115 to 117"}
{"molecule": "CCCCCCCc1ccc(OC(=O)c2ccc3c(c2N)C(=O)c2ccc(C)c([N+](=O)[O-])c2C3=O)cc1", "melting point": "257 to 259"}
{"molecule": "COC(=O)c1cc(OC)c(NC(=O)OCc2ccccc2)c(OC)c1", "melting point": "132 to 133"}
{"molecule": "Cc1nc(-n2cc(-c3ccsc3)nn2)sc1C(=O)NCc1ccccc1", "melting point": "123 to 126"}
{"molecule": "O=C(NN=Cc1c(O)c(O)cc2ccccc12)c1cc2ccccc2cc1O", "melting point": "> 285"}
{"molecule": "CSc1ccc(OC(C)c2ccnc3ncnn23)cc1", "note": "(configuration not stated)", "melting point": "84 to 86"}
{"molecule": "Cc1ccc(-c2c(Cl)nc(C#N)n2S(=O)(=O)c2c(C)noc2C)cc1", "melting point": "103 to 108"}
{"molecule": "CC(=O)N1Cc2c(-c3noc(C4CC4)n3)ncn2-c2cccc(F)c21", "melting point": "208 to 210"}
{"molecule": "O=C1NCCN1c1ccc(S(=O)(=O)Oc2ccc3[nH]ccc3c2)cc1", "melting point": "226 to 227"}
{"molecule": "CN1CCN(c2c(CO)cnc3c(NC(=O)c4c(Cl)cccc4Cl)cccc23)C1=O", "melting point": "251 to 253"}
{"molecule": "CC(C)C(CN(C)c1ccccc1)NS(=O)(=O)c1c(Cl)cc(Cl)cc1Cl", "note": "(configuration not stated)", "melting point": "169 to 170"}
{"molecule": "O=C1Cc2c(OCCNCc3ccccc3)ccc(Cl)c2N1", "melting point": "161 to 163"}
{"molecule": "Cc1nn2ccccc2c1SC#N", "melting point": "111 to 113"}
{"molecule": "C[Si](C)(Oc1ccc(N)cc1)O[Si](C)(C)Oc1ccc(N)cc1", "melting point": "56 to 57"}
{"molecule": "Oc1ccc2cc(-c3cc4ccccc4s3)ccc2c1Cl", "melting point": "220 to 221"}
{"molecule": "N#CCc1cc(C(=O)O)cs1", "melting point": "154 to 159"}
{"molecule": "CCOC(=O)CCNC(=O)Nc1ccccc1CCc1cc(C(C)(C)C)c(O)c(C(C)(C)C)c1", "melting point": "158 to 159"}
{"molecule": "CC(C)(C)C(=O)OCN1C(=O)CN(CCN2CC(=O)N(COC(=O)C(C)(C)C)C(=O)C2)CC1=O", "melting point": "114 to 118"}
{"molecule": "CCCCCOc1ccccc1C1=NNC(=O)CC1", "melting point": "50 to 52"}
{"molecule": "COC(=O)c1cc(CCCc2coc3nc(N)nc(N)c23)cs1", "melting point": "156 to 157"}
{"molecule": "CN(C(=O)COc1nc2c(F)cccc2s1)c1ccccc1", "melting point": 94}
{"molecule": "COc1ccc(-c2nc(SCc3cccc(CSc4ncnc5nc[nH]c45)c3)[nH]c2-c2ccc(OC)cc2)cc1", "melting point": "129 to 130"}
{"molecule": "CC(CC#CC(C)(C)O[Si](C)(C)C(C)(C)C)C1=CCC2C3=CC=C4CC(O[Si](C)(C)C(C)(C)C(C)C)CCC4(C)C3CCC12C", "note": "(configuration not stated)", "melting point": "62 to 66"}
{"molecule": "NC(=O)c1cc(C(=O)O)c2c(c1)C(C(=O)O)CCN2", "note": "(configuration not stated)", "melting point": "265 to 266"}
{"molecule": "CN(C)CCCn1c2ccc(O)cc2c2c3c(c(-c4ccccc4)cc21)C(=O)NC3=O", "melting point": "185 to 189"}
{"molecule": "O=c1[nH]ncc(N2CCN(Cc3ccccc3)CC2)c1Cl", "melting point": "173 to 175"}
{"molecule": "CCOC(=O)[C@H](Cc1cc(O)c(O)cc1I)NC=O", "melting point": "131 to 132"}
{"molecule": "CC(C)(C)OC(=O)NNc1cccc([N+](=O)[O-])c1", "melting point": 105}
{"molecule": "O=C(Nc1ccccc1-n1cccn1)c1cccc2c1C(=O)c1ccccc1-2", "melting point": "164 to 166"}
{"molecule": "NNC(=O)c1ccc(-c2csc(N=C(N)N)n2)o1", "melting point": "279 to 280"}
{"molecule": "CCOC(=O)C(CC(C)C)(C(=O)OCC)[C@H](NC(C)=O)[PH](=O)O", "melting point": "105 to 106"}
{"molecule": "Cn1nc(CO)nc1NCCCOc1cccc(CN2CCCCC2)c1", "melting point": "118 to 119"}
{"molecule": "COC1=C(C)C(C)(F)C(C(=O)c2ccccc2)C=C1", "note": "(configuration not stated)", "melting point": "59 to 61"}
{"molecule": "CCCCn1cc(C(=O)C(=O)O)c2cc(-c3cccc(Cl)c3)ccc21", "melting point": "108 to 109"}
{"molecule": "CC(C)[C@H](NCc1ccc(Br)cc1)C(=O)O", "melting point": "239 to 241"}
{"molecule": "CCNc1nc(-c2cccc(C3=Nc4cc(N(C)C)c(Cl)cc4NC(=O)C3)c2)cs1", "melting point": "122 to 123"}
{"molecule": "C=CC(=O)OCCCNC(=O)CCc1cc(-n2nc3ccccc3n2)c(O)c(C(C)(C)C)c1", "melting point": "87 to 89"}
{"molecule": "O=C(NCCSSCCNC(=O)c1ccc(OC(F)(F)F)cc1)c1ccc(OC(F)(F)F)cc1", "melting point": "150 to 151"}
{"molecule": "Cc1cnc2c(NC(=O)c3ccccc3[N+](=O)[O-])cccc2c1-n1ccnc1", "melting point": "199 to 204"}
{"molecule": "CCOC(=NC(=O)Nc1ccc(Cl)cc1)N1Cc2ccccc2-c2ccccc2C1", "melting point": "154 to 156"}
{"molecule": "CNc1ccnc2c1c(=O)n(C)c(=O)n2C", "melting point": "179 to 180"}
{"molecule": "CN1C(=O)C(C(=O)NCC2CCC(C(=O)O)CC2)S(=O)(=O)c2ccccc21", "note": "(configuration not stated)", "melting point": "203 to 204"}
{"molecule": "CSc1nnc(-c2ccc3ccccc3c2)n1C", "melting point": "177 to 179"}
{"molecule": "Cc1cc2c(C(=O)O)ccc(C(=O)O)c2cc1C", "melting point": "268 to 280"}
{"molecule": "CCOC(=O)NC[C@H]1CN(c2ccc3c(c2)CCCc2cnoc2-3)C(=O)O1", "melting point": "181 to 183"}
{"molecule": "COc1ccccc1CC(=O)N1C[C@@H]2[C@H](F)CCC(c3ccccc3)(c3ccccc3)[C@@H]2C1", "melting point": 205}
{"molecule": "COC(=O)C1=C(Cl)/C(=N/OS(=O)(=O)c2ccc(C)cc2)CC(c2ccc(Cl)c(OC)c2F)N1", "note": "(configuration not stated)", "melting point": "62 to 64"}
{"molecule": "CNc1ncnc2c(NC3OC(CO)C(O)C3O)ncnc12", "note": "(configuration not stated)", "melting point": 230}
{"molecule": "COC(=O)CC=CCC(=O)NCCc1ccccc1", "melting point": "69 to 70"}
{"molecule": "COC1C=C(C)C(=O)CC(C)(C)C1OC(=O)c1ccccc1", "note": "(configuration not stated)", "melting point": "91.5 to 93.5"}
{"molecule": "NC(=O)Cc1ccc(OCC(O)CNCCCCn2cnc3ccccc32)cc1", "note": "(configuration not stated)", "melting point": "119 to 123"}
{"molecule": "Cc1nc2cccc(Cl)c2c(=O)o1", "melting point": 149}
{"molecule": "CC(C)c1cc(-c2ccc(F)cc2)nc(O)n1", "melting point": "215 to 217"}
{"molecule": "CCCCc1nn(-c2ccccc2C(F)(F)F)c(=O)n1Cc1ccc(-c2ccccc2S(=O)(=O)NC(C)(C)C)cc1", "melting point": "168 to 170"}
{"molecule": "Oc1nc2c([nH]1)CCCCC2", "melting point": 272}
{"molecule": "CCc1ncnc(O)c1[N+](=O)[O-]", "melting point": "181 to 183"}
{"molecule": "CC(C)=CCCC(C)CCCC(C)=CC=CC(C)=CC(=O)O", "note": "(configuration not stated)", "melting point": "60 to 62"}
{"molecule": "CC(=O)Oc1ccc2nc(NC(=O)Nc3ccccc3)sc2c1", "melting point": "210 to 213"}
{"molecule": "COC(=O)c1sc(OC)c(C)c1O", "melting point": "63 to 65"}
{"molecule": "COc1ccc(C(=O)Oc2cccc3cc4cccc(OC(=O)c5ccc(OC)cc5)c4c(OC(=O)c4ccc(OC)cc4)c23)cc1", "melting point": 260}
{"molecule": "Cc1nnc(-c2ccc3occ(-c4ccc(C(=O)O)c(F)c4)c3c2)o1", "melting point": "282 to 283"}
{"molecule": "CC(=N)NN(C)C(=O)OC(C)(C)C", "melting point": "187 to 189"}
{"molecule": "COC(=O)NNC(=S)Cc1ccc2ccccc2c1", "melting point": "129 to 131"}
{"molecule": "O=C1NCCOC1C(O)c1ccccc1", "note": "(configuration not stated)", "melting point": "130 to 140"}
{"molecule": "COc1cc(/C=C/c2ccc(N(C)C)cc2)cc(OC)c1OC", "melting point": "114 to 115"}
{"molecule": "Cc1ccc2c(c1)C=C(c1ccc(OCCN3CCCC3)cc1)S2=O", "note": "(configuration not stated)", "melting point": "150 to 151"}
{"molecule": "c1ccc2nc(N3CCNCC3)cnc2c1", "melting point": "74 to 76"}
{"molecule": "CC(=O)Nc1ccc2nc(CN(C(C)C)C(C)C)ccc2c1", "melting point": "147 to 148"}
{"molecule": "COC(=O)C(SC)c1ccc(N2C(=O)c3ccccc3C2=O)cc1", "note": "(configuration not stated)", "melting point": "168 to 169"}
{"molecule": "O=C(Nc1ccc(C(=O)N2Cc3ccccc3Cc3ccccc32)cc1)c1ccccc1OC(F)(F)F", "melting point": "232 to 235"}
{"molecule": "O=C1c2sccc2-n2cnc(Cl)c2[C@@H]2CCCN12", "melting point": "180 to 183"}
{"molecule": "CS(=O)(=O)N(C(=O)c1ccccc1)c1cc2occc(=O)c2cc1Oc1ccccc1", "melting point": "164 to 166"}
{"molecule": "O=[N+]([O-])c1ccc(CNc2cccc(S(=O)(=O)O)c2)cc1", "melting point": "> 275"}
{"molecule": "Cc1cc(-c2cc(C(F)F)n3nccc3n2)ccc1Cl", "melting point": 107}
{"molecule": "Nc1nc(O)c2c(n1)NCC(CCc1cc(C(=O)O)c[nH]1)C2", "note": "(configuration not stated)", "melting point": "> 260"}
{"molecule": "NC(=O)c1ccccc1NC(=O)c1cccnc1", "melting point": "220 to 222"}
{"molecule": "COc1ccc2c(c1Br)CCC1C(=O)N(C)C(=O)C21", "note": "(configuration not stated)", "melting point": "196 to 199"}
{"molecule": "COc1ccc(-c2cncc(OC3SCC(OC(C)=O)C(OC(C)=O)C3OC(C)=O)c2)cn1", "note": "(configuration not stated)", "melting point": 172}
{"molecule": "O=C1C2=C(CCCC2)C(=O)N1c1c(F)cc(Cl)c2nc(Cl)sc12", "melting point": "139 to 141"}
{"molecule": "Nc1cc(-c2ccccc2)nc2ccccc12", "melting point": "162 to 164"}
{"molecule": "CC(=O)C(=CNc1ccc(C2=NNC(=O)CC2)cc1)C(C)=O", "melting point": "218 to 222"}
{"molecule": "CN(Cc1ccccc1)C(Cc1ccccc1)C(=O)O", "note": "(configuration not stated)", "melting point": "214 to 215"}
{"molecule": "CCc1cc2c(s1)-n1nc(C(N)=O)nc1C(OC(C)=O)N=C2c1ccccc1Cl", "note": "(configuration not stated)", "melting point": "168 to 170"}
{"molecule": "CCCCCCC(C(=O)O)c1cccc(Sc2ccccc2C)c1O", "note": "(configuration not stated)", "melting point": "90 to 91"}
{"molecule": "O=C(O)CCc1cccc2ccccc12", "melting point": "151 to 153"}
{"molecule": "COC(=O)c1ccc(C)c(-n2c(C)cc(OCc3ccccc3CNC(=O)Nc3cc(C(C)(C)C)nn3-c3ccc(Cl)c(O)c3)c(Cl)c2=O)c1", "melting point": "193 to 195"}
{"molecule": "Cc1cc(C(=O)c2[nH]c3ccc(Cl)cc3c2CC(=O)O)no1", "melting point": "253 to 255"}
{"molecule": "CCc1nnc(-c2ncc3[nH]c4cccc(OCc5ccccc5)c4c3c2COC)o1", "melting point": 230}
{"molecule": "COc1ccc(N2CCOCC2)c2sc(-c3nc(-c4ccccc4)c[nH]3)nc12", "melting point": "226 to 233"}
{"molecule": "Cc1cc(Cl)ccc1NC(=S)Nc1ncccc1OCc1c(F)cccc1Cl", "melting point": "176 to 177"}
{"molecule": "CCOC(=O)C(C(=O)Nc1nccs1)C(=O)c1cccc(C(F)(F)F)c1NC(=O)C(Cl)C(C)C", "note": "(configuration not stated)", "melting point": 160}
{"molecule": "CCOCc1nc2c(N)nc3ccccc3c2n1NCC(C)C", "melting point": "137 to 140"}
{"molecule": "COc1ccc(C(=O)OC2(c3nc4ccccc4s3)C=CC(=O)C=C2)cc1", "melting point": 137}
{"molecule": "CCOc1ccc(-c2nc(-c3cccc(C(O)CO)n3)cs2)cc1OCC", "note": "(configuration not stated)", "melting point": 112}
{"molecule": "COc1ccc(-n2nc(OC)cc2-c2ccc(C#N)cc2)cc1", "melting point": "112 to 113"}
{"molecule": "Cc1cc(N(C)Cc2oc(-c3ccc(C(F)(F)F)cc3)nc2C)cc(C)c1OCC(=O)O", "melting point": "122 to 123"}
{"molecule": "COc1ccc(Oc2ccc(F)cc2)cc1C#CC(C)N(O)C(N)=O", "note": "(configuration not stated)", "melting point": "141 to 142"}
{"molecule": "N#CCc1cc(O)cc2cc(-c3ccc(O)c(F)c3)oc12", "melting point": "242 to 244"}
